Assay results reported in patent publication US20210059964A1, “Anti-I-Type Allergy Agent, Degranulation Inhibitor for Basophils and Mast Cells, Anti-Dementia Agent, Agent for Improving/Inhibiting Short-Term Memory Impairment” (Mitsui Sugar Co., Ltd., priority 2018, published 2021).

How the values were obtained:
[1] = tested on: short-term memory impairment caused by accumulation of amyloid β proteins; experiment: Y-shaped maze test in mice injected with amyloid β; type: in vivo; conditions: 100 mg/kg oral once a day
Description: p-Coumaric acid (trans-p-coumaric acid, Tokyo Chemical Industry Co., Ltd.) was stored at room temperature (control temperature: 18.0° C. to 28.0° C.) until it was used in a test. Injection water (Otsuka distilled water, Otsuka Pharmaceutical Factory, Inc.) was prepared as a medium in which p-coumaric acid was to be dissolved. The required amount of p-coumaric acid was weighed out and dissolved in the injection water. Then, the dissolved p-coumaric acid was diluted to a predetermined concentration to obtain a test solution.
Amyloid β (Amyloid-β Protein (25-35, Polypeptide Laboratories) to be used in an amyloid β solution was stored in a freezer (control temperature: −30° C. to −20° C.) until it was to be used in a test. Amyloid β was dissolved in injection water to 2 mM to prepare an amyloid β solution.
Male Slc:ddY mice (SPF, Japan SLC, Inc.) were used as test animals 5-week-old mice were obtained as the mice. Mice are animal species generally used in behavioral pharmacology tests, and maintenance of their strains is clear. The body weight range of the mice 1 day after the acquisition was 23.8 to 30.0 g.
Grouping was performed through a random sampling method on the start day of administration of a test solution so that the average body weight of each group was approximately uniform. As a group configuration, there were three groups: a pseudo-operation group, a medium control group, and a p-coumaric acid administration group. In the p-coumaric acid administration group, the amount of solution administered was calculated as 10 mL/kg based on the body weight on the administration day so that the amount of p-coumaric acid administered was 100 mg/kg per mouse. A 0.5% (w/v) methyl cellulose solution was administered to the pseudo-operation group and the medium control group at 10 mL/kg.
The start day of administration of a test solution was regarded as day 1 of administration, the test solution was administered once a day, and an amyloid β solution was injected into the mice on day 8 of the administration. Thereafter, a Y-shaped maze test was carried out on day 14 of the administration. Each procedure will be described below.
The administration route was oral administration. Regarding the administration method, a test solution was orally administered according to a usual method used in test facilities using a polypropylene disposable injection cylinder (TERUMO CORPORATION) equipped with a disposable oral sonde for mice (Fuchigami Kikai). At the time of the administration operation, the test solution was mixed by inversion every time it was administered to a mouse, and was then sucked into the injection cylinder. On the day of injection of an amyloid β solution, the test solution was administered after the injection of the amyloid β solution. […]

RBL-2H3 cells = experiment: RBL-2H3 cell degranulation inhibition test; type: cell-based, rat; conditions: untreated control = 100
Description: Whether or not an anti-I-type allergy agent has a degranulation inhibitory action can be confirmed through the following method. For example, cells, such as rat basophilic leukemia cells (RBL-2H3 cells), which extracellularly release […] containing histamine through cross-linking of IgE bound on a cell surface due to an antigen are used. The extent to which the degranulation of a specimen to which an anti-I-type allergy agent is added is inhibited when these cells are stimulated by the antigen is calculated compared to a specimen to which no anti-I-type allergy agent is added. RBL-2H3 cells, which were rat basophilic leukemia cells, (National Institutes of Biomedical Innovation, Health and Nutrition) were seeded in a 96-well plate and were then cultured overnight. […] Then, the cells were washed with the buffer solutions. Furthermore, the prepared 1,000, 500, and 250 μg/mL test solutions were added thereto so that the final concentrations became 500 μg/mL (Example 1), 250 μg/mL (Example 2), and 125 μg/mL (Example 3), respectively. Thereafter, the mixtures were allowed to react at 37° C. for 10 minutes. Then, DNP-labeled human serum albumin was added thereto, and the mixtures were further allowed to react at 37° C. for 3 hours. […] For each sample of Examples 1 to 3, Comparative Example 1, a positive control, an antigen-unstimulated control, and sample blanks, the absorbance of p-nitrophenol generated by reaction between a substrate and β-hexosaminidase present in granules was measured (at a measurement wavelength of 405 nm and a control wavelength of 650 nm) using a microplate reader (SpectraMax M2e, Molecular Devices, LLC.) The emission rate was obtained using the following equation from the absorbance of each sample with respect to the absorbance of Comparative Example 1, and each degranulation rate was calculated from the emission rate. In the equation, “absorbance on cell supernatant” and “absorbance on cell solution side” are values obtained by subtracting the sample blanks. Emission rate (%)=absorbance on cell supernatant side/(absorbance on cell supernatant side+absorbance on cell solution side) Degranulation rate (%)={average value of (emission rate of test solution−emission rate of antigen-unstimulated control)/(emission rate of untreated control−emission rate of antigen-unstimulated control)}×100

[2] = day 14, 8 minutes in maze, mean ± standard error

SMILES | Spontaneous alternation behavior number [1, 2] | Spontaneous behavior alternation rate (%) [1, 2] | Total entry number [1, 2] | spontaneous alternation behavior rate compared with medium control group ([1]; day 14, significant difference p<0.01) | degranulation rate (RBL-2H3 cells; p-coumaric acid final concentration 125 μg/mL) | degranulation rate (RBL-2H3 cells; p-coumaric acid final concentration 250 μg/mL) | degranulation rate (RBL-2H3 cells; p-coumaric acid final concentration 500 μg/mL, anti-DNP-IgE sensitised, DNP-labeled human serum albumin stimulated) | degranulation rate (RBL-2H3 cells; Wortmannin final concentration 25 nmol/L)
O=C(O)/C=C/c1ccc(O)cc1 [p-Coumaric acid] | 21.3 ± 1.5 | 66.0 ± 1.4% | 34.2 ± 2.1 | higher than that of the medium control group | 78±8.1% | 46±8.0% | 12±3.0% | –
COC[C@H]1OC(=O)c2coc3c2[C@@]1(C)C1=C(C3=O)[C@@H]2CCC(=O)[C@@]2(C)C[C@H]1OC(C)=O [Wortmannin, reference compound] | – | – | – | – | – | – | – | 39±6.4%
